Assays:
Assay in all cases: relative viability (nuclei count vs DMSO), 5 days (fraction); higher = more cells survive
NCI-H596 = system: NCI-H596
In short: (§1)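 Dosing by pin tool came one day after lung cancer cell lines were seeded in 1536-well plates, using either one drug or a fixed anchor-drug dose plus five library-drug doses (not always all listed) in √10 steps. After 5 days, nuclei were counted on 4× images. Relative viability is treated-well nuclei count divided by vehicle-well nuclei count, and values are medians of duplicate plates.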

LCLC-97TM1 = system: LCLC-97TM1
In short: as §1

NCI-H520 = system: NCI-H520
In short: as §1

NCI-H1650 = system: NCI-H1650
In short: as §1

NCI-H2087 = system: NCI-H2087
In short: as §1

ABC-1 = system: ABC-1
In short: as §1

CAL-12T = system: CAL-12T
In short: as §1

NCI-H1651 = system: NCI-H1651
In short: as §1

NCI-H2023 = system: NCI-H2023
In short: as §1

A-427 = system: A-427
In short: as §1

NCI-H460 = system: NCI-H460
In short: as §1

PC-3 [JPC-3] = system: PC-3 [JPC-3]
In short: as §1

BEN = system: BEN
In short: as §1

LC-2-ad = system: LC-2-ad
In short: as §1

H3255 = system: H3255
In short: as §1

NCI-H727 = system: NCI-H727
In short: as §1

NCI-H1944 = system: NCI-H1944
In short: as §1

NCI-H661 = system: NCI-H661
In short: as §1

NCI-H650 = system: NCI-H650
In short: as §1

NCI-H441 = system: NCI-H441
In short: as §1

201T = system: 201T
In short: as §1

NCI-H1915 = system: NCI-H1915
In short: as §1

**Q.** Which results are given for `O=c1cc(-c2cccc3c2Sc2ccccc2S3)oc(N2CCOCC2)c1` + C[C@@H](Oc1cc(-c2cnn(C3CCNCC3)c2)cnc1N)c1c(Cl)ccc(F)c1Cl [Crizotinib] (partner 1 µM)?
**A.** relative viability (NCI-H596; first compound 0.08 µM): 0.96; relative viability (NCI-H596; first compound 0.253 µM): 1.08; relative viability (NCI-H596; first compound 0.8 µM): 0.982; relative viability (NCI-H596; first compound 2.53 µM): 0.891; relative viability (NCI-H596; first compound 8 µM): 0.806; relative viability (LCLC-97TM1; first compound 0.08 µM): 0.373; relative viability (LCLC-97TM1; first compound 0.253 µM): 0.408; relative viability (LCLC-97TM1; first compound 0.8 µM): 0.459; relative viability (LCLC-97TM1; first compound 2.53 µM): 0.334; relative viability (LCLC-97TM1; first compound 8 µM): 0.456; relative viability (NCI-H520; first compound 0.08 µM): 0.447; relative viability (NCI-H520; first compound 0.253 µM): 0.695; relative viability (NCI-H520; first compound 0.8 µM): 0.976; relative viability (NCI-H520; first compound 2.53 µM): 0.821; relative viability (NCI-H520; first compound 8 µM): 0.821; relative viability (NCI-H1650; first compound 0.08 µM): 0.998; relative viability (NCI-H1650; first compound 0.253 µM): 0.956; relative viability (NCI-H1650; first compound 0.8 µM): 0.945; relative viability (NCI-H1650; first compound 2.53 µM): 0.963; relative viability (NCI-H1650; first compound 8 µM): 1.35; relative viability (NCI-H2087; first compound 0.08 µM): 0.982; relative viability (NCI-H2087; first compound 0.253 µM): 0.966; relative viability (NCI-H2087; first compound 0.8 µM): 1.12; relative viability (NCI-H2087; first compound 2.53 µM): 0.927; relative viability (NCI-H2087; first compound 8 µM): 1.01; relative viability (ABC-1; first compound 0.08 µM): 1.27; relative viability (ABC-1; first compound 0.253 µM): 1.24; relative viability (ABC-1; first compound 0.8 µM): 1.05; relative viability (ABC-1; first compound 2.53 µM): 1.31; relative viability (ABC-1; first compound 8 µM): 1.49; relative viability (CAL-12T; first compound 0.08 µM): 0.729; relative viability (CAL-12T; first compound 0.253 µM): 0.686; relative viability (CAL-12T; first compound 0.8 µM): 0.85; relative viability (CAL-12T; first compound 2.53 µM): 0.6; relative viability (CAL-12T; first compound 8 µM): 0.731; relative viability (NCI-H1651; first compound 0.08 µM): 0.916; relative viability (NCI-H1651; first compound 0.253 µM): 0.889; relative viability (NCI-H1651; first compound 0.8 µM): 0.916; relative viability (NCI-H1651; first compound 2.53 µM): 0.882; relative viability (NCI-H1651; first compound 8 µM): 0.903; relative viability (NCI-H2023; first compound 0.08 µM): 0.673; relative viability (NCI-H2023; first compound 0.253 µM): 0.682; relative viability (NCI-H2023; first compound 0.8 µM): 0.787; relative viability (NCI-H2023; first compound 2.53 µM): 0.648; relative viability (NCI-H2023; first compound 8 µM): 0.646; relative viability (A-427; first compound 0.08 µM): 0.988; relative viability (A-427; first compound 0.253 µM): 0.661; relative viability (A-427; first compound 0.8 µM): 1.02; relative viability (A-427; first compound 2.53 µM): 0.86; relative viability (A-427; first compound 8 µM): 0.791; relative viability (NCI-H460; first compound 0.08 µM): 1; relative viability (NCI-H460; first compound 0.8 µM): 0.761; relative viability (NCI-H460; first compound 2.53 µM): 1.12; relative viability (NCI-H460; first compound 8 µM): 1.79; relative viability (PC-3 [JPC-3]; first compound 0.08 µM): 0.983; relative viability (PC-3 [JPC-3]; first compound 0.253 µM): 1.01; relative viability (PC-3 [JPC-3]; first compound 0.8 µM): 1.03; relative viability (PC-3 [JPC-3]; first compound 2.53 µM): 0.971; relative viability (PC-3 [JPC-3]; first compound 8 µM): 1.02; relative viability (BEN; first compound 0.08 µM): 0.925; relative viability (BEN; first compound 0.253 µM): 1.02; relative viability (BEN; first compound 0.8 µM): 1.1; relative viability (BEN; first compound 2.53 µM): 0.85; relative viability (BEN; first compound 8 µM): 1.14; relative viability (LC-2-ad; first compound 0.08 µM): 0.392; relative viability (LC-2-ad; first compound 0.253 µM): 0.499; relative viability (LC-2-ad; first compound 0.8 µM): 0.525; relative viability (LC-2-ad; first compound 2.53 µM): 0.436; relative viability (LC-2-ad; first compound 8 µM): 0.509; relative viability (H3255; first compound 0.08 µM): 0.89; relative viability (H3255; first compound 0.253 µM): 0.992; relative viability (H3255; first compound 0.8 µM): 1.02; relative viability (H3255; first compound 2.53 µM): 0.747; relative viability (H3255; first compound 8 µM): 1.26; relative viability (NCI-H727; first compound 0.253 µM): 0.892; relative viability (NCI-H727; first compound 2.53 µM): 0.724; relative viability (NCI-H727; first compound 8 µM): 0.868; relative viability (NCI-H1944; first compound 0.08 µM): 1.12; relative viability (NCI-H1944; first compound 0.253 µM): 1.23; relative viability (NCI-H1944; first compound 0.8 µM): 1.17; relative viability (NCI-H1944; first compound 8 µM): 1.08; relative viability (NCI-H661; first compound 0.08 µM): 1.15; relative viability (NCI-H661; first compound 0.253 µM): 1.04; relative viability (NCI-H661; first compound 0.8 µM): 1.13; relative viability (NCI-H661; first compound 2.53 µM): 0.939; relative viability (NCI-H661; first compound 8 µM): 0.958; relative viability (NCI-H650; first compound 0.08 µM): 0.702; relative viability (NCI-H650; first compound 0.253 µM): 0.606; relative viability (NCI-H650; first compound 0.8 µM): 0.74; relative viability (NCI-H650; first compound 2.53 µM): 0.58; relative viability (NCI-H650; first compound 8 µM): 0.694; relative viability (NCI-H441; first compound 0.08 µM): 0.697; relative viability (NCI-H441; first compound 0.253 µM): 1.28; relative viability (NCI-H441; first compound 0.8 µM): 0.779; relative viability (NCI-H441; first compound 2.53 µM): 0.807; relative viability (NCI-H441; first compound 8 µM): 1; relative viability (201T; first compound 0.08 µM): 1; relative viability (201T; first compound 0.253 µM): 0.889; relative viability (201T; first compound 0.8 µM): 1; relative viability (201T; first compound 2.53 µM): 1.08; relative viability (201T; first compound 8 µM): 0.958; relative viability (NCI-H1915; first compound 0.08 µM): 1.02; relative viability (NCI-H1915; first compound 0.253 µM): 0.987; relative viability (NCI-H1915; first compound 0.8 µM): 1.02; relative viability (NCI-H1915; first compound 2.53 µM): 0.905; relative viability (NCI-H1915; first compound 8 µM): 0.847

Reference: the supplement of paper PMC10307832
